Results on 20 compounds are retold here after ChEMBL document CHEMBL1149183, “Novel benzo[1,4]diazepin-2-one derivatives as endothelin receptor antagonists” (J Med Chem, 2004).

In assay [1] the target is T1, Endothelin receptor type B (Homo sapiens, UniProt P24530).
T1 sequence (P24530 whole entry): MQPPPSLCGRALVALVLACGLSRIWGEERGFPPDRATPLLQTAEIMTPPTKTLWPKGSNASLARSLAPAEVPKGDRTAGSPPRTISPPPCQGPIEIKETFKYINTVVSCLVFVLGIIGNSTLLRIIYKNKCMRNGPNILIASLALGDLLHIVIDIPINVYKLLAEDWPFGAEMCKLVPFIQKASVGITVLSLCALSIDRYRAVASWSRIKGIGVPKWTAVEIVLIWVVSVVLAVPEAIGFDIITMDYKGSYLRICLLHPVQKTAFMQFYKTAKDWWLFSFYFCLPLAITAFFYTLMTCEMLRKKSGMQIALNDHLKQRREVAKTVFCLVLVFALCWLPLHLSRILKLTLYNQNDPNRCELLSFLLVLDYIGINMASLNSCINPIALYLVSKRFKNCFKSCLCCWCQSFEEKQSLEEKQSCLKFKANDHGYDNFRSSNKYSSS
The experiment in a line: Antagonist activity towards human recombinant Endothelin B receptor expressed in chinese hamster ovary (CHO) cells determined using [125I]ET1 as radioligand. The assay is classed as functional, cell-based.

The target in a further assay is T2, Endothelin-1 receptor (Homo sapiens, UniProt P25101).
T2 sequence (P25101 whole entry): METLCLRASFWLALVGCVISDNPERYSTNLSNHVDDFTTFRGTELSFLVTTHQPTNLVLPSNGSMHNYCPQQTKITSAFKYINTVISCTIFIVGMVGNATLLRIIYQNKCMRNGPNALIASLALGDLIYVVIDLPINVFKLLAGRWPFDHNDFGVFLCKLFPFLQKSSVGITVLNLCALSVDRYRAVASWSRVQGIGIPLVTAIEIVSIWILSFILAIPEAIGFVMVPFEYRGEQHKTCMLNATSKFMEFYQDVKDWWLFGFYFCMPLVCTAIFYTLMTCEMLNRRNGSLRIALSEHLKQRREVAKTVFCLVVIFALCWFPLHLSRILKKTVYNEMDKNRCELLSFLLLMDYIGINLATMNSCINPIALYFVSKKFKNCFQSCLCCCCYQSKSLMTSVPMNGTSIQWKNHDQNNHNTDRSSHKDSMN
The experiment in a line: Antagonist activity towards human recombinant Endothelin A receptor expressed in chinese hamster ovary (CHO) cells determined using [125I]ET1 as radioligand. The assay is classed as functional, cell-based.

SMILES strings stand for the structures.

What is called IC50 is the concentration that gives 50% inhibition.

As for `Cc1ccc(O[C@H](C(=O)O)[C@@]2(c3ccccc3)NCC(=O)N(Cc3c(Cl)cccc3Cl)c3ccccc32)cc1` (racemic), the IC50 is 0.966 µM in assay [1] and 0.156 µM at Endothelin-1 receptor.

On to `Cc1cc(C)nc(O[C@H](C(=O)O)[C@@]2(c3ccccc3)NCc3nnc(CC(=O)O)n3-c3ccccc32)n1` (racemic), for which the figures for the IC50 (in assay [1]; on Endothelin-1 receptor) were 0.261 µM and 0.0588 µM, respectively.

With `Cc1cc(C)nc(O[C@H](C(=O)O)[C@@]2(c3ccccc3)NCC(=O)N(Cc3ccc(-c4ccccc4)cc3)c3ccccc32)n1` (racemic), the IC50 in assay [1] came out at 0.534 µM; on Endothelin-1 receptor, 0.102 µM.

Take `O=C(O)[C@@H](Oc1ccccc1Cl)[C@@]1(c2ccccc2)NCC(=O)N(Cc2c(Cl)cccc2Cl)c2ccccc21` (racemic): the IC50 (in assay [1]; at Endothelin-1 receptor) was greater than 10 µM throughout.

With `CCc1cc(CC)nc(O[C@H](C(=O)O)[C@@]2(c3ccccc3)NCC(=O)N(C)c3ccccc32)n1` (racemic), the IC50 in assay [1] turned out to be 0.654 µM; at Endothelin-1 receptor, 0.0205 µM.

For `Cc1ccc(C)c(O[C@H](C(=O)O)[C@@]2(c3ccccc3)NCC(=O)N(Cc3c(Cl)cccc3Cl)c3ccccc32)c1` (racemic), the values for the IC50 (in assay [1]; at Endothelin-1 receptor) were greater than 1 µM and greater than 10 µM, respectively.

Consider `Cc1cc(C)nc(O[C@H](C(=O)O)[C@@]2(c3ccccc3)NCC(=O)N(Cc3cc(F)c(F)cc3F)c3ccccc32)n1` (racemic), for which the half-maximal inhibitory concentration (IC50) was 0.0727 µM in assay [1] and 0.0072 µM on Endothelin-1 receptor.

As for `O=C(O)[C@@H](Oc1ccccc1)[C@@]1(c2ccccc2)NCC(=O)N(Cc2c(Cl)cccc2Cl)c2ccccc21` (racemic), the IC50 came out at 3.7 µM in assay [1] and 0.211 µM at Endothelin-1 receptor.

`COc1ccc(CN2C(=O)CN[C@](c3ccc(C)cc3)([C@H](Oc3nc(C)cc(C)n3)C(=O)O)c3ccccc32)cc1`: the IC50 in assay [1] worked out at 0.181 µM; on Endothelin-1 receptor, 0.221 µM.

Consider `CSc1cnc(O[C@H](C(=O)O)[C@@]2(c3ccccc3)NCC(=O)N(C)c3ccccc32)nc1` (racemic), for which the IC50 in assay [1] is greater than 10 µM; on Endothelin-1 receptor it was 6.6 µM.

Consider `Cc1cc(C)nc(O[C@H](C(=O)O)[C@@]2(c3ccccc3)NCC(=O)N(CCCC(=O)O)c3ccccc32)n1` (racemic), for which the IC50 in assay [1] is 0.253 µM; at Endothelin-1 receptor, 0.0459 µM.

Take `Cc1cc(C)nc(O[C@H](C(=O)O)[C@@]2(c3ccccc3)NCC(=O)N(Cc3cccc(Cl)c3)c3ccccc32)n1` (racemic): the IC50 in assay [1] was 0.0214 µM; on Endothelin-1 receptor it was 0.0058 µM.

Turning to `Cc1cc(C)nc(O[C@H](C(=O)O)[C@@]2(c3ccccc3)NCC(=O)N(Cc3ccc(C(=O)O)cc3)c3ccccc32)n1` (racemic), the IC50 in assay [1] was 3.53 µM; on Endothelin-1 receptor it was 0.123 µM.

With `Cc1ccccc1O[C@H](C(=O)O)[C@@]1(c2ccccc2)NCC(=O)N(Cc2c(Cl)cccc2Cl)c2ccccc21` (racemic), the IC50 (in assay [1]; on Endothelin-1 receptor) was greater than 10 µM throughout.

With `Cc1cccc(CN2C(=O)CN[C@](c3ccccc3)([C@H](Oc3nc(C)cc(C)n3)C(=O)O)c3ccccc32)c1` (racemic), the 50% inhibitory concentration (IC50) amounted to 0.0167 µM in assay [1] and 0.005 µM at Endothelin-1 receptor.

As for `Cc1cc(C)nc(O[C@H](C(=O)O)[C@@]2(c3ccccc3)NCC(=O)N(Cc3ccc(C(F)(F)F)cc3)c3ccccc32)n1` (racemic), the IC50 stood at 0.0471 µM in assay [1] and 0.017 µM on Endothelin-1 receptor.

Regarding `COc1cc(OC)cc(O[C@H](C(=O)O)[C@@]2(c3ccccc3)NCC(=O)N(C)c3ccc(Cl)cc32)c1` (racemic), the figures for the IC50 (in assay [1]; at Endothelin-1 receptor) were 1.81 µM and 0.262 µM, respectively.

`Cc1cc(C)nc(O[C@H](C(=O)O)[C@@]2(c3ccccc3)NCC(=O)N(CCC3CCCCC3)c3ccccc32)n1` (racemic): the IC50 in assay [1] came to 0.153 µM; at Endothelin-1 receptor, 0.146 µM.

Turning to `Cc1cc(C)nc(O[C@H](C(=O)O)[C@@]2(c3ccccc3)NCC(=O)N(Cc3ccccc3C(F)(F)F)c3ccccc32)n1` (racemic), the IC50 in assay [1] was found to be 0.0225 µM; on Endothelin-1 receptor, 0.104 µM.

For the compound `O=C(O)[C@@H](Oc1cccc(Cl)c1)[C@@]1(c2ccccc2)NCC(=O)N(Cc2c(Cl)cccc2Cl)c2ccccc21` (racemic), the IC50 in assay [1] worked out at 3.15 µM; on Endothelin-1 receptor, 0.101 µM.
